Measured values from patent US20220016079A1, “COMBINATION TREATMENT OF HIV INFECTIONS” (priority 2018, published 2022).
Values joined by “and” are separate entries in the source; they are usually repeats but may differ in a detail not shown here. Equal entries are not always repeated.

Tests used:
[1] = system: latent HIV in JLat 10.6-GFP, 2D10 and 5A8 cells; assay: HIV reactivation using latent reporter cell lines (GFP expression by flow cytometry); format: cell-based, human
Description: The experiment analyzed the ability of DEB10-1143 at reactivating latent HIV using three well-characterized latent T cell lines—JLat 10.6-GFP, 2D10 and 5A8 (Jordan A, Bisgrove D, Verdin E (2003) EMBO J 22(8): 1868-1877. doi: 10.1093/emboj/cdg188. PMID: 12682019; Sakane N, Kwon HS, Pagans S, Kaehlcke K, Mizusawa Y, Kamada M, et al. (2011) PLoS Pathog 7(8): e1002184. PMID: 21876670; Pearson R, Kim Y K, Hokello J, Lassen K, Friedman J, Tyagi M, et al. (2008) J Virol 82(24): 12291-12303. PMID: 18829756). These cell lines contain part of the HIV genome and the GFP reporter gene and are unable to produce infective HIV particles. Drug titration and kinetic studies were conducted. Debio-1143 was tested alone or in combination with the current antiretroviral therapy (ART), consisting of 20 μM tenofovir disoproxil fumarate [TDF], 10 μM emtricitabine [FTC] and 1 μM raltegravir [RAL]. ART and DEB10-1143 were added simultaneously to cells.
Method: Cells (100,000 cells/100 μL) were treated in triplicate for 0 and 72 h with increasing concentrations of DEB10-1143 (0 to 20.5 μM) used alone or in combination with ART (see above). ART and DEB10-1143 were added simultaneously to cells. Cells were analyzed for GFP expression by flow cytometry at the indicated time points counting all cells per replicate, and reported as % GFP+cells.

HIV-1 (JR-CSF) [2] = assay: Efficacy study in HIV-1 infected humanized BLT mice: HIV-1 loads in blood (qPCR); format: in vivo; details: 4 weeks of treatment starting 12 weeks after infection; n=8 per group
Description: Methods: Humanized BLT mice were generated by implanting human fetal liver and thymus tissues under the kidney capsule of an immunodeficient NOD scid gamma (NSG=NOD.Cg-Prkdc^scidII12rg^tm1Wjl/SzJ) mouse, followed by an administration of autologous human fetal liver CD34+ cells (human hematopoietic stem cells). In BLT mice, T cell education occured in the human thymic tissue, resulting in complete systemic reconstitution of all major human hematopoietic lineages including T, B, monocyte/macrophage, dendritic, and natural killer cells. The extensive systemic and genital mucosal reconstitution with human lymphoid cells rendered female humanized BLT mice susceptible to both vaginal and rectal HIV infection. […]
(§1) R5 HIV (JR-CSF) was produced by 293T transfection and quantified by p24 ELISA. Humanized mice were infected with JR-CSF (200 ng of p24) and viral replication quantified weekly by qPCR for up to 16 weeks.
Methods: Thirty-two BLT mice were infected with HIV-1. 12 weeks later mice were split in 4 groups (n=8), treated with various regimen and analyzed for 6 weeks. […] Body weight, HIV-1 loads and PD-1 expression on CD8+ T cells were analyzed once weekly. […] The remaining mice (4×5=20) were sacrificed 2 weeks after treatment completion and viral RNA levels in organ reservoirs (spleen, thymic organoid, lung, spleen, lymph nodes and liver) were quantified by qPCR.

HIV-1 (JR-CSF) [3] = assay: Efficacy study in HIV-1 infected humanized BLT mice: viral RNA levels in organ reservoirs (qPCR); format: in vivo
Description: Methods: Humanized BLT mice were generated by implanting human fetal liver and thymus tissues under the kidney capsule of an immunodeficient NOD scid gamma (NSG=NOD.Cg-Prkdc^scidII12rg^tm1Wjl/SzJ) mouse, followed by an administration of autologous human fetal liver CD34+ cells (human hematopoietic stem cells). In BLT mice, T cell education occured in the human thymic tissue, resulting in complete systemic reconstitution of all major human hematopoietic lineages including T, B, monocyte/macrophage, dendritic, and natural killer cells. The extensive systemic and genital mucosal reconstitution with human lymphoid cells rendered female humanized BLT mice susceptible to both vaginal and rectal HIV infection.
Humanized BLT mice were generated by implanting 1-mm^3 pieces of human fetal liver and thymus tissues (Advanced Bioscience Resources) under the kidney capsule in 6 to 8-week-old female NSG mice (Jackson Laboratories) bred at The Scripps Research Institute (TSRI). Each cohort was produced with tissues from a single donor. CD34+ HSPC were purified from autologous fetal liver tissue, isolated by magnetic bead selection for CD34+ cells (Miltenyi), phenotyped cytometrically for engraftment success (CD34+, HLA DR-), and cryopreserved until injection (200,000 CD34+ cells) into mice 3 weeks after thymus/liver implantation. Human reconstitution was verified by flow cytometry (CD45+, CD3+, CD4+ and CD8+) in peripheral blood of the mice.
as §1
Methods: Thirty-two BLT mice were infected with HIV-1. 12 weeks later mice were split in 4 groups (n=8), treated with various regimen and analyzed for 6 weeks. Group A received both vehicles for 4 weeks. Group B received Debio-1143 (100 mg/kg; QD1-5, p.o.) for 4 weeks (Debio-1143 was given 5 days a week for 4 weeks). Group C received the anti-PD-1 antibody (200 μg/dose, i.p., BIW) for 4 weeks. Group D received the combination of Debio-1143 (100 mg/kg; QD1-5, p.o.) together with the anti-PD-1 antibody (200 μg/dose i.p. BIW) for 4 weeks. Body weight, HIV-1 loads and PD-1 expression on CD8+ T cells were analyzed once weekly. After the 4 weeks of treatment, three mice per group were sacrificed for bioanalytical assessments. The remaining mice (4×5=20) were sacrificed 2 weeks after treatment completion and viral RNA levels in organ reservoirs (spleen, thymic organoid, lung, spleen, lymph nodes and liver) were quantified by qPCR.

With `CN[C@@H](C)C(=O)N[C@H]1CN(C(=O)CC(C)C)CC[C@H]2CC[C@@H](C(=O)NC(c3ccccc3)c3ccccc3)N2C1=O` [Debio 1143, (5S,8S,10aR)-N-benzhydryl-5-((S)-2-(methylamino)propanamido)-3-(3-methylbutanoyl)-6-oxodecahydropyrrolo[1,2-a][1,5]diazocine-8-carboxamide] the “degree of HIV reactivation, comparison of cell lines” value ([1]; 2D10 cells compared to the two other cell lines) was “shows the best degree of HIV reactivation”, the “influence of ART on the degree of latency reversal” value ([1]; in combination with ART (20 μM TDF, 10 μM FTC, 1 μM RAL), added simultaneously) was “does not influence” and the “HIV reactivation (% GFP+ cells)” value ([1]; single agent, 0 to 20.5 μM, 72 h, JLat 10.6-GFP, 2D10 and 5A8 cells) was “possesses the capacity of activating latent HIV”. The “HIV titers in blood” value (HIV-1 (JR-CSF) [2]) was “increased viral titers”, the “HIV load in organs (viral RNA levels in organ reservoirs)” value (HIV-1 (JR-CSF) [3]; 2 weeks after treatment completion, CD4+ cells of spleen, thymic organoid, lung, lymph nodes, liver) was “has no effect” and the “Tissue HIV Load at Week 18, Liver” value (HIV-1 (JR-CSF) [3]; individual mice #1-5) was 5.2 Log Viral RNA Copies/100,000 CD4+ Cells and 4.2 Log Viral RNA Copies/100,000 CD4+ Cells and 4.9 Log Viral RNA Copies/100,000 CD4+ Cells and 5.5 Log Viral RNA Copies/100,000 CD4+ Cells and 5.9 Log Viral RNA Copies/100,000 CD4+ Cells. The “Tissue HIV Load at Week 18, Lung” value (HIV-1 (JR-CSF) [3]; individual mice #1-5) was 3.9 Log Viral RNA Copies/100,000 CD4+ Cells and 5.7 Log Viral RNA Copies/100,000 CD4+ Cells and 4.4 Log Viral RNA Copies/100,000 CD4+ Cells and 6.1 Log Viral RNA Copies/100,000 CD4+ Cells and 6.5 Log Viral RNA Copies/100,000 CD4+ Cells, the “Tissue HIV Load at Week 18, Lymph nodes” value (HIV-1 (JR-CSF) [3]; individual mice #1-5) was 4.4 Log Viral RNA Copies/100,000 CD4+ Cells and 5 Log Viral RNA Copies/100,000 CD4+ Cells and 5.3 Log Viral RNA Copies/100,000 CD4+ Cells and 6.3 Log Viral RNA Copies/100,000 CD4+ Cells and 7.2 Log Viral RNA Copies/100,000 CD4+ Cells and the “Tissue HIV Load at Week 18, Spleen” value (HIV-1 (JR-CSF) [3]; individual mice #1-5) was 4.4 Log Viral RNA Copies/100,000 CD4+ Cells and 6.4 Log Viral RNA Copies/100,000 CD4+ Cells and 5.2 Log Viral RNA Copies/100,000 CD4+ Cells and 5.5 Log Viral RNA Copies/100,000 CD4+ Cells and 6.7 Log Viral RNA Copies/100,000 CD4+ Cells. The “Tissue HIV Load at Week 18, Thymic organoid” value (HIV-1 (JR-CSF) [3]; individual mice #1-5) was 4.6 Log Viral RNA Copies/100,000 CD4+ Cells and 5.3 Log Viral RNA Copies/100,000 CD4+ Cells and 3.9 Log Viral RNA Copies/100,000 CD4+ Cells and 5.7 Log Viral RNA Copies/100,000 CD4+ Cells and 6.2 Log Viral RNA Copies/100,000 CD4+ Cells, the “Tissue HIV Load at Week 18, Liver” value (HIV-1 (JR-CSF) [3]; mean of 5 mice) was 5.14 Log Viral RNA Copies/100,000 CD4+ Cells and the “Tissue HIV Load at Week 18, Lung” value (HIV-1 (JR-CSF) [3]; mean of 5 mice) was 5.32 Log Viral RNA Copies/100,000 CD4+ Cells. For the same compound, the “Tissue HIV Load at Week 18, Lymph nodes” value (HIV-1 (JR-CSF) [3]; mean of 5 mice) was 5.64 Log Viral RNA Copies/100,000 CD4+ Cells, the “Tissue HIV Load at Week 18, Spleen” value (HIV-1 (JR-CSF) [3]; mean of 5 mice) was 5.64 Log Viral RNA Copies/100,000 CD4+ Cells and the “Tissue HIV Load at Week 18, Thymic organoid” value (HIV-1 (JR-CSF) [3]; mean of 5 mice) was 5.14 Log Viral RNA Copies/100,000 CD4+ Cells.
